Biological target: T1, human TRPA1 (Homo sapiens, UniProt O75762)
T1 construct: expressed in transfected cells; host or cells: CHO cells
Experiment: TRPA1 FLIPR Tetra calcium influx assay in CHO cells (block of cinnamaldehyde-induced calcium influx)
Format: cell-based
Settings: Table 2; CHO cells expressing TRPA1; agonist cinnamaldehyde 75 uM; 20 min compound incubation; Hill coefficient fixed to 1.5; read-out: hTRPA1 CHO Ca2+ AUC EVO (IC50)
Method: IC50s (effective concentration) of compounds on the human and rat TRPA1 channels were determined using a FLIPR Tetra instrument. CHO cells expressing TRPA1 were plated into 384-well plates, incubated overnight at 37 C, and loaded with BD calcium indicator dye for 1 hr at 37° C. followed by 15 minutes at room temperature. The assay buffer was Hank's Balanced Salt Solution (HBSS) containing 20 mM HEPES (pH readjusted to 7.4) along with 0.02% BSA.
Following dye load and plate cool down, compounds were added to the cells using FLIPR Tetra. Plates were then incubated with compounds for 20 minutes at room temperature prior to adding agonist. Following this incubation, ˜EC80 concentration of cinnamaldehyde (75 uM for human TRPA1 and 45 uM for rat TRPA1) was added to active the channels and block of cinnamaldehyde induced calcium influx was measured.
IC50s were fit with a standard Hill function, keeping the Hill coefficient (n) fixed to 1.5. Fixing the Hill coefficient will generally reduce variability of the IC50 determination. The IC50s were individually examined to make sure the MIN and MAX points were set correctly prior to validation of the results.

T1 sequence (O75762 whole entry): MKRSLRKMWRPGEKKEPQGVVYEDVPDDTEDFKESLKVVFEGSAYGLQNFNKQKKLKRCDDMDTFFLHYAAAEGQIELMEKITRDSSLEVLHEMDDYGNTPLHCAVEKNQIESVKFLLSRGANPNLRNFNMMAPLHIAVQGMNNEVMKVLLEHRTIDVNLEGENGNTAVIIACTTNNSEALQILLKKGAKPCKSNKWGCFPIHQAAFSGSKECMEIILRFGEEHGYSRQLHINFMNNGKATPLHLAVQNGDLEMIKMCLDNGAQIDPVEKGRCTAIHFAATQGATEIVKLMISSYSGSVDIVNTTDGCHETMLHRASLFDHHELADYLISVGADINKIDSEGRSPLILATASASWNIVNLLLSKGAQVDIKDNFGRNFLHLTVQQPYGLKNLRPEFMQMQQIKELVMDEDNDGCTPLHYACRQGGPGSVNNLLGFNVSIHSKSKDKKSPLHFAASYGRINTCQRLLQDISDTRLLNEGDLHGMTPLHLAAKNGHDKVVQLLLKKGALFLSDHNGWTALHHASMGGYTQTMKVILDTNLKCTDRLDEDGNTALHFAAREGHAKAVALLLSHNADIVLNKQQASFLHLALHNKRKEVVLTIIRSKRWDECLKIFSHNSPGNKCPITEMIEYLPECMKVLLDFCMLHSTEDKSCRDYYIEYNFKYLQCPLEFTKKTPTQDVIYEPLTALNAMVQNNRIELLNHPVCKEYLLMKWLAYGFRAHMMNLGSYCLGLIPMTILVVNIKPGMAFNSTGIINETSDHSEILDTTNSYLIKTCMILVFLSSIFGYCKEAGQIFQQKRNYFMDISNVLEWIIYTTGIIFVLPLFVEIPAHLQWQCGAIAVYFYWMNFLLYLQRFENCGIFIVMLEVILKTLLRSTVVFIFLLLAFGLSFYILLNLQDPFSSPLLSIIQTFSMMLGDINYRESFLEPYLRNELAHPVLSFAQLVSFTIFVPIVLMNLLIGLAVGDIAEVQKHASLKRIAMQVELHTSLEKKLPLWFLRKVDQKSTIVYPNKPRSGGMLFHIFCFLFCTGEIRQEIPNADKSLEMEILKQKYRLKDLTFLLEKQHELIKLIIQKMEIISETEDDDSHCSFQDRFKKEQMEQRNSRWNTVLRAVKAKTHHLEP

Compound | IC50 [nM]
C[C@H]1[C@H](F)C[C@@H](C(=O)NCc2cn(-c3cnc(C(F)(F)F)nc3)nc2C(F)F)N1S(=O)(=O)c1ccc(F)cc1 [Example 40, (2S,4R,5S)-N-[[3-(difluoromethyl)-1-[2-(trifluoromethyl)pyrimidin-5-yl]-1H-pyrazol-4-yl]methyl]-4-fluoro-1-[(4-fluorobenzene)sulfonyl]-5-methylpyrrolidine-2-carboxamide] | 43.1
C[C@H]1[C@H](F)C[C@@H](C(=O)NCc2cc(-c3cnc(C(F)(F)F)nc3)ncc2F)N1S(=O)(=O)c1cccc(F)c1 [Example 41, (2S,4R,5S)-4-fluoro-N-((5-fluoro-2-(2-(trifluoromethyl)pyrimidin-5-yl)pyridin-4-yl)methyl)-1-(3-fluorophenylsulfonyl)-5-methylpyrrolidine-2-carboxamide] | 40.5
C[C@H]1[C@H](F)C[C@@H](C(=O)NCc2cc(OCc3ccc(F)cn3)c(F)cn2)N1S(=O)(=O)c1ccc(F)cc1 [Example 47, (2S,4R,5S)-4-fluoro-N-((5-fluoro-4-((5-fluoropyridin-2-yl)methoxy)pyridin-2-yl)methyl)-1-(4-fluorophenylsulfonyl)-5-methylpyrrolidine-2-carboxamide] | 1900
C[C@H]1[C@H](F)C[C@@H](C(=O)NCc2cc(OCc3cncc(C(F)(F)F)c3)c(F)cn2)N1S(=O)(=O)c1ccc(F)cc1 [Example 48, (2S,4R,5S)-4-fluoro-N-((5-fluoro-4-((5-(trifluoromethyl)pyridin-3-yl)methoxy)pyridin-2-yl)methyl)-1-(4-fluorophenylsulfonyl)-5-methylpyrrolidine-2-carboxamide] | 105
C[C@H]1[C@H](F)C[C@@H](C(=O)NCc2cn([C@H]3CC[C@H](C(F)(F)F)CC3)nc2C(F)(F)F)N1S(=O)(=O)c1ccc(F)cc1 [Example 50, (2S,4R,5S)-4-fluoro-1-(4-fluorophenyl)sulfonyl-5-methyl-N-[[3-(trifluoromethyl)-1-[4-(trifluoromethyl)cyclohexyl]pyrazol-4-yl]methyl]pyrrolidine-2-carboxamide] | 50.5
C[C@H]1[C@H](F)C[C@@H](C(=O)NCc2cc([C@H]3CC[C@H](C(F)(F)F)CC3)c(F)cn2)N1S(=O)(=O)c1ccc(F)cc1 [Example 53, (2S,4R,5S)-4-fluoro-1-(4-fluorophenyl)sulfonyl-N-[[5-fluoro-4-[4-(trifluoromethyl)cyclohexyl]-2-pyridyl]methyl]-5-methyl-pyrrolidine-2-carboxamide] | 64.6
C[C@H]1[C@H](F)C[C@@H](C(=O)NCc2cc(-c3cnc(C(F)(F)F)s3)ncn2)N1S(=O)(=O)c1ccc(F)cc1 [Example 56, (2S,4R,5S)-4-fluoro-1-(4-fluorophenyl)sulfonyl-5-methyl-N-[[6-[2-(trifluoromethyl)thiazol-5-yl]pyrimidin-4-yl]methyl]pyrrolidine-2-carboxamide] | 66.9
O=C(NCc1cc(N2CCC(OC(F)(F)F)CC2)ncc1F)[C@@H]1C[C@@H](F)CN1S(=O)(=O)c1ccc(F)cc1 [Example 57, (2S,4R)-4-fluoro-1-(4-fluorophenyl)sulfonyl-N-[[5-fluoro-2-[4-(trifluoromethoxy)-1-piperidyl]-4-pyridyl]methyl]pyrrolidine-2-carboxamide] | 49.4
C[C@H]1CCC[C@@H](C(=O)NCc2cc(-c3cnc(C(F)(F)F)nc3)ncc2F)N1S(=O)(=O)c1ccc(F)cc1 [Example 58, (2S,6S)-1-(4-fluorophenyl)sulfonyl-N-[[5-fluoro-2-[2-(trifluoromethyl)pyrimidin-5-yl]-4-pyridyl]methyl]-6-methyl-piperidine-2-carboxamide] | 73.9
O=C(NCc1cc(-c2ccc(S(F)(F)(F)(F)F)cc2)ncc1F)[C@@H]1C[C@@H](F)CN1S(=O)(=O)c1ccc(F)cc1 [Example 59, (2S,4R)-4-fluoro-N-[[5-fluoro-2-[4-(pentafluoro-sulfanyl)phenyl]-4-pyridyl]methyl]-1-(4-fluorophenyl)sulfonyl-pyrrolidine-2-carboxamide] | 161
CC(C)Oc1nc(CNC(=O)[C@@H]2C[C@@H](F)CN2S(=O)(=O)c2ccc(F)cc2)cc(-c2cnc(C(F)(F)F)nc2)n1 [Example 60, (2S,4R)-4-fluoro-1-(4-fluorophenyl)sulfonyl-N-[[2-isopropoxy-6-[2-(trifluoromethyl)pyrimidin-5-yl]pyrimidin-4-yl]methyl]pyrrolidine-2-carboxamide] | 83.1
C[C@H]1[C@H](F)C[C@@H](C(=O)NCc2cn(-c3cnc(C(F)(F)F)nc3)nc2Cl)N1S(=O)(=O)c1ccc(F)cc1 [Example 62, (2S,4R,5S)-N-[[3-chloro-1-[2-(trifluoromethyl)pyrimidin-5-yl]pyrazol-4-yl]methyl]-4-fluoro-1-(4-fluorophenyl)sulfonyl-5-methyl-pyrrolidine-2-carboxamide] | 58.2

The next molecules have a lower IC50 than those just listed; values first:

IC50 [nM] | Compound
21.9 | C[C@H]1[C@H](F)C[C@@H](C(=O)NCc2cc(-c3cnc(C(F)(F)F)nc3)nc(N3CCC3)n2)N1S(=O)(=O)c1ccc(F)cc1 [Example 42, (2S,4R,5S)-N-((2-(azetidin-1-yl)-2′-(trifluoromethyl)-4,5′-bipyrimidin-6-yl)methyl)-4-fluoro-1-(4-fluorophenylsulfonyl)-5-methylpyrrolidine-2-carboxamide]
9.39 | C[C@H]1[C@H](F)C[C@@H](C(=O)NCc2ccc(F)c(-c3cnc(C(F)(F)F)nc3)c2)N1S(=O)(=O)c1ccc(F)cc1 [Example 43, (2S,4R,5S)-4-fluoro-N-(4-fluoro-3-(2-(trifluoromethyl)pyrimidin-5-yl)benzyl)-1-(4-fluorophenylsulfonyl)-5-methylpyrrolidine-2-carboxamide]
7.34 | C[C@H]1[C@H](F)C[C@@H](C(=O)NCc2cc(-c3cnc(C(F)(F)F)nc3)ccc2F)N1S(=O)(=O)c1ccc(F)cc1 [Example 44, (2S,4R,5S)-4-fluoro-N-(2-fluoro-5-(2-(trifluoromethyl)pyrimidin-5-yl)benzyl)-1-(4-fluorophenylsulfonyl)-5-methylpyrrolidine-2-carboxamide]
8.05 | C[C@H]1[C@H](F)C[C@@H](C(=O)NCc2cc(F)cc(-c3cnc(C(F)(F)F)cn3)c2)N1S(=O)(=O)c1ccc(F)cc1 [Example 45, (2S,4R,5S)-4-fluoro-N-(3-fluoro-5-(5-(trifluoromethyl)pyrazin-2-yl)benzyl)-1-(4-fluorophenylsulfonyl)-5-methylpyrrolidine-2-carboxamide]
26.2 | C[C@H]1[C@H](F)C[C@@H](C(=O)NCc2cn(-c3cnc(C(F)(F)F)nc3)nc2C(F)(F)F)N1S(=O)(=O)c1ccc(F)cc1 [Example 46, (2S,4R,5S)-4-fluoro-1-(4-fluorophenylsulfonyl)-5-methyl-N-((3-(trifluoromethyl)-1-(2-(trifluoromethyl)pyrimidin-5-yl)-1H-pyrazol-4-yl)methyl)pyrrolidine-2-carboxamide]
36.7 | C[C@H]1[C@H](F)C[C@@H](C(=O)NCc2cc(-c3cnc(C(F)(F)F)nc3)c(C3CC3)cn2)N1S(=O)(=O)c1ccc(F)cc1 [Example 49, (2S,4R,5S)-N-[[5-cyclopropyl-4-[2-(trifluoromethyl)pyrimidin-5-yl]-2-pyridyl]methyl]-4-fluoro-1-(4-fluorophenyl)sulfonyl-5-methyl-pyrrolidine-2-carboxamide]
15.5 | C[C@H]1[C@H](F)C[C@@H](C(=O)NCc2cc(-c3cnc(C(F)(F)F)nc3)ncc2C#N)N1S(=O)(=O)c1ccc(F)cc1 [Example 51, (2S,4R,5S)-N-[[5-cyano-2-[2-(trifluoromethyl)pyrimidin-5-yl]-4-pyridyl]methyl]-4-fluoro-1-(4-fluorophenyl)sulfonyl-5-methyl-pyrrolidine-2-carboxamide]
8.9 | C[C@H]1[C@H](F)C[C@@H](C(=O)NCc2cc([C@H]3CC[C@@H](C(F)(F)F)CC3)c(F)cn2)N1S(=O)(=O)c1ccc(F)cc1 [Example 52, (2S,4R,5S)-4-fluoro-1-(4-fluorophenyl)sulfonyl-N-[[5-fluoro-4-[4-(trifluoromethyl)cyclohexyl]-2-pyridyl]methyl]-5-methyl-pyrrolidine-2-carboxamide]
6.38 | C[C@H]1[C@H](F)C[C@@H](C(=O)NCc2cc([C@H]3CC[C@@H](C(F)(F)F)CC3)ncc2F)N1S(=O)(=O)c1ccc(F)cc1 [Example 54, (2S,4R,5S)-4-fluoro-1-(4-fluorophenyl)sulfonyl-N-[[5-fluoro-2-[4-(trifluoromethyl)cyclohexyl]-4-pyridyl]methyl]-5-methyl-pyrrolidine-2-carboxamide]
5.89 | C[C@H]1[C@H](F)C[C@@H](C(=O)NCc2cc([C@H]3CC[C@H](C(F)(F)F)CC3)ncc2F)N1S(=O)(=O)c1ccc(F)cc1 [Example 55, (2S,4R,5S)-4-fluoro-1-(4-fluorophenyl)sulfonyl-N-[[5-fluoro-2-[4-(trifluoromethyl)cyclohexyl]-4-pyridyl]methyl]-5-methyl-pyrrolidine-2-carboxamide]
21.6 | O=C(NCc1cc(-c2cnc(C(F)(F)F)nc2)ncc1F)[C@@H]1CC[C@H](C(F)(F)F)N1S(=O)(=O)c1ccc(F)cc1 [Example 61, (2S,5R)-1-(4-fluorophenyl)sulfonyl-N-[[5-fluoro-2-[2-(trifluoromethyl)pyrimidin-5-yl]-4-pyridyl]methyl]-5-(trifluoromethyl)pyrrolidine-2-carboxamide]

Reference: US10179782B2, “Substituted sulfonamide compounds” (Genentech, Inc., priority 2016, dated 2019)
